From patent US8629157B2, “Pyrrolidine compounds which modulate the CB2 receptor” (Boehringer Ingelheim International GmbH, priority 2009, dated 2014)

biological target: human CB2R (Homo sapiens, UniProt P34972); assay: CB2R mediated modulation of cAMP synthesis; assay type: cell-based; conditions: not given
Experimental: B. CB2R Mediated Modulation of cAMP Synthesis:
Compounds of the invention were evaluated for their CB2 agonist or inverse agonistic activity in accordance with the following experimental method.
CHO cells expressing human CB2R (Euroscreen) were plated at a density of 5000 cells per well in 384 well plates and incubated overnight at 37° C. After removing the media, the cells were treated with test compounds diluted in stimulation buffer containing 1 mM IBMX, 0.25% BSA and 10 uM Forskolin. The assay was incubated for 30 minutes at 37° C. Cells were lysed and the cAMP concentration was measured using DiscoverX-XS cAMP kit, following the manufacturer's protocol. In this setting, agonists will decrease forskolin induced production of cAMP while inverse agonists will further increase forskolin induced production of cAMP. EC50 of agonists were calculated as follows. The maximal amount of cAMP produced by forskolin compared to the level of cAMP inhibited by 1 uM CP55940 is defined as 100%. […] Data was analyzed using a four-parameter logistic model. (Model 205 of XLfit 4.0).

human CB2R, sequence (P34972 whole entry): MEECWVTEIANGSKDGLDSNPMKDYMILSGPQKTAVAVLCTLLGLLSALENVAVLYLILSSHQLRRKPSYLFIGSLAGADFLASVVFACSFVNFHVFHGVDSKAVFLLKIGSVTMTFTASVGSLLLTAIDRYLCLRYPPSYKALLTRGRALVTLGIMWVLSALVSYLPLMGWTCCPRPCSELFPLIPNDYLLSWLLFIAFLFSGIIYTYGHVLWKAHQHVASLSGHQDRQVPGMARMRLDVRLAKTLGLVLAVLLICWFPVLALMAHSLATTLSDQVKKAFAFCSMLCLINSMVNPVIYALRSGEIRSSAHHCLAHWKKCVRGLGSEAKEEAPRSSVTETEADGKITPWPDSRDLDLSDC

**Q.** `CC(C)(C)c1csc(NC(=O)[C@@H]2CCCN2CC2CCOCC2)n1` [(S)-1-(Tetrahydro-pyran-4-ylmethyl)-pyrrolidine-2-carboxylic acid (4-tert-butyl-thiazol-2-yl)-amide] was tested. Which EC50 did it give?
**A.** Its EC50 is 17.6 nM.

**Q.** Which EC50 does the source give for `CC(C)(C)c1cc(NC(=O)[C@@H]2CC(=O)CN2c2ncc(C(F)(F)F)cc2Cl)no1` [(S)-1-(3-Chloro-5-trifluoromethyl-pyridin-2-yl)-4-oxo-pyrrolidine-2-carboxylic acid (5-tert-butyl-isoxazol-3-yl)-amide] here?
**A.** Its EC50 is 40.2 nM.

**Q.** Which EC50 does the source give for `CCC(C)c1cc(NC(=O)[C@@H]2CCC(=O)N2c2ccc(C(F)(F)F)cc2)on1` (stereo partly drawn) [(S)-5-Oxo-1-(4-trifluoromethyl-phenyl)-pyrrolidine-2-carboxylic acid (3-sec-butyl-isoxazol-5-yl)-amide] here?
**A.** The EC50 was 40.9 nM.

**Q.** With `O=C(Nc1ccc(C(F)(F)F)c(F)c1)[C@@H]1CCCN1c1ccc(Cl)cc1` [(S)-1-(4-Chloro-phenyl)-pyrrolidine-2-carboxylic acid (3-fluoro-4-trifluoromethyl-phenyl)-amide] as the compound, how does the EC50 read?
**A.** Its EC50 is 30.4 nM.

**Q.** How did the EC50 turn out when `O=C(Nc1nc(-c2ccccc2)ns1)[C@@H]1C[C@H](O)CN1c1ccc(C(F)(F)F)cn1` [(2S,4S)-4-Hydroxy-1-(5-trifluoromethyl-pyridin-2-yl)-pyrrolidine-2-carboxylic acid (3-phenyl-1,2,4-thiadiazol-5-yl)-amide] was run?
**A.** Its EC50 is 18.4 nM.

**Q.** Which EC50 does the source give for `CC(C)(C)c1cc(NC(=O)[C@@H]2CCC(=O)N2c2cc(F)c(F)c(F)c2)no1` [(S)-5-Oxo-1-(3,4,5-trifluoro-phenyl)-pyrrolidine-2-carboxylic acid (5-tert-butyl-isoxazol-3-yl)-amide] here?
**A.** Its EC50 is 74.7 nM.

**Q.** `CC(C)(C)c1cc(NC(=O)[C@@H]2CCCN2CC2CCOC2)on1` (stereo partly drawn) [(S)-1-(Tetrahydro-furan-3-ylmethyl)-pyrrolidine-2-carboxylic acid (3-tert-butyl-isoxazol-5-yl)-amide] was tested. Which EC50 did it give?
**A.** Its EC50 is 0.116 nM.

**Q.** Which EC50 does the source give for `C[C@@]1(C(=O)Nc2ccc(C(F)(F)F)cn2)CCCN1c1ccc(C(F)(F)F)cn1` [(S)-2-Methyl-1-(5-trifluoromethyl-pyridin-2-yl)-pyrrolidine-2-carboxylic acid (5-trifluoromethyl-pyridin-2-yl)-amide] here?
**A.** Its EC50 is 0.634 nM.

**Q.** `CC(C)(C)c1nnc(NC(=O)[C@@H]2CCCN2C2CCCC2)s1` [(S)-1-Cyclopentyl-pyrrolidine-2-carboxylic acid (5-tert-butyl-1,3,4-thiadiazol-2-yl)-amide] was tested. Which EC50 did it give?
**A.** Its EC50 is 165 nM.

**Q.** Which EC50 does the source give for `CC(C)(C)c1cc(NC(=O)[C@@H]2CCCN2S(=O)(=O)c2ccc(S(C)(=O)=O)cc2)no1` [(S)-1-(4-Methanesulfonyl-benzenesulfonyl)-pyrrolidine-2-carboxylic acid (5-tert-butyl-isoxazol-3-yl)-amide] here?
**A.** The EC50 was 183 nM.

**Q.** With `O=C(Nc1nc(-c2ccc(F)cc2)cs1)[C@@H]1CCCN1c1ccc(Cl)cc1` [(S)-1-(4-Chloro-phenyl)-pyrrolidine-2-carboxylic acid [4-(4-fluoro-phenyl)-thiazol-2-yl]-amide] as the compound, how does the EC50 read?
**A.** The EC50 was 115 nM.

**Q.** How did the EC50 turn out when `CC(C)(C)c1nnc(NC(=O)[C@@H]2CCCN2C2CCCCC2)s1` [(S)-1-Cyclohexyl-pyrrolidine-2-carboxylic acid (5-tert-butyl-1,3,4-thiadiazol-2-yl)-amide] was run?
**A.** Its EC50 is 30 nM.

**Q.** `CC(C)(C)c1cc(NC(=O)[C@@H]2CCC(=O)N2c2ccc(F)c(Cl)c2)on1` [(S)-1-(3-Chloro-4-fluoro-phenyl)-5-oxo-pyrrolidine-2-carboxylic acid (3-tert-butyl-isoxazol-5-yl)-amide] was tested. Which EC50 did it give?
**A.** The EC50 was 26.7 nM.

**Q.** For `CC(C)(C)c1cc(NC(=O)[C@@H]2CCCN2S(=O)(=O)c2ccc(Cl)cc2)no1` [(S)-1-(4-Chloro-benzenesulfonyl)-pyrrolidine-2-carboxylic acid (5-tert-butyl-isoxazol-3-yl)-amide], which EC50 is on record?
**A.** Its EC50 is 284 nM.

**Q.** For `CCC(C)c1ccc(NC(=O)[C@@H]2CCC(=O)N2c2ncc(C(F)(F)F)cc2Cl)cc1` (stereo partly shown), which EC50 is on record?
**A.** Its EC50 is 28.1 nM.

**Q.** For `CC(C)(CO)c1cc(NC(=O)[C@@H]2CCC(=O)N2c2ccc(C(F)(F)F)cc2)no1` [(S)-5-Oxo-1-(4-trifluoromethyl-phenyl)-pyrrolidine-2-carboxylic acid [5-(2-hydroxy-1,1-dimethyl-ethyl)-isoxazol-3-yl]-amide], which EC50 is on record?
**A.** Its EC50 is 80.8 nM.

**Q.** How did the EC50 turn out when `Cc1ccc(N2C(=O)CC[C@H]2C(=O)Nc2cc(C(C)(C)C)no2)cc1` [(S)-5-Oxo-1-p-tolyl-pyrrolidine-2-carboxylic acid (3-tert-butyl-isoxazol-5-yl)-amide] was run?
**A.** The EC50 was 163 nM.

**Q.** `CC(C)(C)c1cc(NC(=O)[C@@H]2CCC(=O)N2c2ccc(F)c(F)c2)no1` [(S)-1-(3,4-Difluoro-phenyl)-5-oxo-pyrrolidine-2-carboxylic acid (5-tert-butyl-isoxazol-3-yl)-amide] was tested. Which EC50 did it give?
**A.** Its EC50 is 64.2 nM.

**Q.** With `O=C(Nc1nc2cc(Cl)ccc2[nH]1)[C@@H]1CCCN1c1ccc(Cl)cc1` [(S)-1-(4-Chloro-phenyl)-pyrrolidine-2-carboxylic acid (5-chloro-1H-benzimidazol-2-yl)-amide] as the compound, how does the EC50 read?
**A.** Its EC50 is 2.16 nM.

**Q.** How did the EC50 turn out when `CC(C)(C)c1cc(NC(=O)[C@@H]2CCCN2C2CCC2)on1` [(S)-1-Cyclobutyl-pyrrolidine-2-carboxylic acid (3-tert-butyl-isoxazol-5-yl)-amide] was run?
**A.** The EC50 was 6.28 nM.

**Q.** With `CC(C)(C)c1cc(NC(=O)[C@@H]2CCC(=O)N2c2ccc(C(F)F)cc2)on1` [(S)-1-(4-Difluoromethyl-phenyl)-5-oxo-pyrrolidine-2-carboxylic acid (3-tert-butyl-isoxazol-5-yl)-amide] as the compound, how does the EC50 read?
**A.** Its EC50 is 15.2 nM.

**Q.** `O=C(Nc1ccc(C(F)(F)F)cn1)C1CCCN1c1ccc(C(F)(F)F)cn1` (stereo not shown) [1-(5-Trifluoromethyl-pyridin-2-yl)-pyrrolidine-2-carboxylic acid (5-trifluoromethyl-pyridin-2-yl)-amide] was tested. Which EC50 did it give?
**A.** The EC50 was 328 nM.

**Q.** `CC(C)c1cc(NC(=O)[C@@H]2CCC(=O)N2c2ccc(Cl)cc2)on1` [(S)-1-(4-Chloro-phenyl)-5-oxo-pyrrolidine-2-carboxylic acid (3-isopropyl-isoxazol-5-yl)-amide] was tested. Which EC50 did it give?
**A.** Its EC50 is 290 nM.

**Q.** `CC(C)(C)c1cc(NC(=O)[C@@H]2CCC(=O)N2c2ccc(Cl)s2)on1` [(S)-1-(5-Chloro-thiophen-2-yl)-5-oxo-pyrrolidine-2-carboxylic acid (3-tert-butyl-isoxazol-5-yl)-amide] was tested. Which EC50 did it give?
**A.** The EC50 was 67.5 nM.

**Q.** How did the EC50 turn out when `CC(C)(C)Cc1cc(NC(=O)[C@@H]2CCCN2C2CCOCC2)on1` [(S)-1-(Tetrahydro-pyran-4-yl)-pyrrolidine-2-carboxylic acid [3-(2,2-dimethyl-propyl)-isoxazol-5-yl]-amide] was run?
**A.** Its EC50 is 14.9 nM.

**Q.** Which EC50 does the source give for `CC(C)(C)c1cc(NC(=O)[C@@H]2C[C@@H](O)CN2C2CCCCC2)no1` [(2S,4R)-1-Cyclohexyl-4-hydroxy-pyrrolidine-2-carboxylic acid (5-tert-butyl-isoxazol-3-yl)-amide] here?
**A.** The EC50 was 4.69 nM.

**Q.** With `CC(C)(C)c1cc(NC(=O)[C@@H]2CCC(=O)N2c2cccc(Cl)c2)on1` [(S)-1-(3-Chloro-phenyl)-5-oxo-pyrrolidine-2-carboxylic acid (3-tert-butyl-isoxazol-5-yl)-amide] as the compound, how does the EC50 read?
**A.** Its EC50 is 203 nM.

**Q.** Which EC50 does the source give for `CC(C)(C)c1cc(NC(=O)[C@@H]2C[C@@H](O)CN2c2ccc(C(F)(F)F)cn2)no1` [(2S,4R)-4-Hydroxy-1-(5-trifluoromethyl-pyridin-2-yl)-pyrrolidine-2-carboxylic acid (5-tert-butyl-isoxazol-3-yl)-amide] here?
**A.** Its EC50 is 161 nM.

**Q.** With `CC(C)(C)c1cc(NC(=O)[C@@H]2CCC(=O)N2c2ccc(F)cn2)on1` [(S)-1-(5-Fluoro-pyridin-2-yl)-5-oxo-pyrrolidine-2-carboxylic acid (3-tert-butyl-isoxazol-5-yl)-amide] as the compound, how does the EC50 read?
**A.** The EC50 was 8.15 nM.

**Q.** Which EC50 does the source give for `CC(C)(C)c1nnc(NC(=O)[C@@H]2C[C@@H](O)CN2CC2CCOCC2)s1` [(2S,4R)-4-Hydroxy-1-(tetrahydro-pyran-4-ylmethyl)-pyrrolidine-2-carboxylic acid (5-tert-butyl-1,3,4-thiadiazol-2-yl)-amide] here?
**A.** Its EC50 is 69.8 nM.

**Q.** How did the EC50 turn out when `CC(C)(C)c1nc(NC(=O)[C@@H]2C[C@H](O)CN2CC2CCOCC2)sc1C#N` [(2S,4S)-4-Hydroxy-1-(tetrahydro-pyran-4-ylmethyl)-pyrrolidine-2-carboxylic acid (4-tert-butyl-5-cyano-thiazol-2-yl)-amide] was run?
**A.** Its EC50 is 380 nM.

**Q.** `CC(C)(C)CC(C)(C)NC(=O)[C@@H]1CCCN1c1ccc(Cl)cc1` [(S)-1-(4-Chloro-phenyl)-pyrrolidine-2-carboxylic acid (1,1,3,3-tetramethyl-butyl)-amide] was tested. Which EC50 did it give?
**A.** The EC50 was 25.1 nM.

**Q.** Which EC50 does the source give for `Cc1ccc(NC(=O)[C@@H]2CCC(=O)N2c2ccc(Cl)cc2)nc1` [(S)-1-(4-Chloro-phenyl)-5-oxo-pyrrolidine-2-carboxylic acid (5-methyl-pyridin-2-yl)-amide] here?
**A.** Its EC50 is 485 nM.

**Q.** With `CC(C)(C)c1cc(NC(=O)[C@@H]2C[C@@H](O)CN2c2ncc(C(F)(F)F)cc2Cl)on1` [(2S,4R)-1-(3-Chloro-5-trifluoromethyl-pyridin-2-yl)-4-hydroxy-pyrrolidine-2-carboxylic acid (3-tert-butyl-isoxazol-5-yl)-amide] as the compound, how does the EC50 read?
**A.** The EC50 was 3.25 nM.

same assay, conditions: CHO cells expressing human CB2R; inhibition of forskolin-stimulated cAMP synthesis; mean; read-out: CB2 CAMP @ EC50 nM (mean)

**Q.** With `O=C(Nc1ccc(C(F)(F)F)cn1)C1CCCN1c1ncc(C(F)(F)F)cc1Cl` (stereo not shown) [1-(3-Chloro-5-trifluoromethyl-pyridin-2-yl)-pyrrolidine-2-carboxylic acid (5-trifluoromethyl-pyridin-2-yl)-amide] as the compound, how does the EC50 read?
**A.** The EC50 was 23.2 nM.

**Q.** For `CC(C)(C)c1cc(NC(=O)[C@@H]2CCCN2c2ncccn2)on1` [(S)-1-Pyrimidin-2-yl-pyrrolidine-2-carboxylic acid (3-tert-butyl-isoxazol-5-yl)-amide], which EC50 is on record?
**A.** The EC50 was 109 nM.

**Q.** `CC(C)(C)c1cc(NC(=O)[C@@H]2CCC(=O)N2c2ccc(C#N)c(F)c2)on1` [(S)-1-(4-Cyano-3-fluoro-phenyl)-5-oxo-pyrrolidine-2-carboxylic acid (3-tert-butyl-isoxazol-5-yl)-amide] was tested. Which EC50 did it give?
**A.** Its EC50 is 286 nM.
